Results reported in patent US8415469B2, “Compounds and methods for kinase modulation, and indications therefor” (Plexxikon Inc., priority 2005, dated 2013).

Key:
Type in all cases: biochemical
Kdr = target: T1, Kdr (Homo sapiens, UniProt P35968); experiment: Z'-Lyte FRET kinase assay (Invitrogen), Kdr; conditions: read-out: IC50, activity toward kinase Kdr
T1 construct: purchased Invitrogen (assay run by Invitrogen)

Stk6 = target: T2, Stk6 (Homo sapiens, UniProt O14965); experiment: Z'-Lyte FRET kinase assay (Invitrogen), Stk6; conditions: read-out: IC50, activity toward kinase Stk6
T2 construct: purchased Invitrogen (Carlsbad, Calif.), screening service
T2 sequence (O14965 1-403): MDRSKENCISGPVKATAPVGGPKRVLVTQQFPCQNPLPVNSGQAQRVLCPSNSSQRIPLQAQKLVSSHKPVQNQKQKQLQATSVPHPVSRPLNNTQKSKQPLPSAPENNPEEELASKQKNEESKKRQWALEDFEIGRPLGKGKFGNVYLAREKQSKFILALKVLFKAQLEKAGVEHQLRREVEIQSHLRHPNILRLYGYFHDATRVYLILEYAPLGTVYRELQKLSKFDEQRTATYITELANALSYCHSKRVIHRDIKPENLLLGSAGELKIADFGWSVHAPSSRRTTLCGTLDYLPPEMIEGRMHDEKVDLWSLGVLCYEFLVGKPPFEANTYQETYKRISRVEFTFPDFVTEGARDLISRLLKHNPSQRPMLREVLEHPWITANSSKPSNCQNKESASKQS

MAP4K4 = MAP4K4 (Homo sapiens, UniProt O95819); experiment: AlphaScreen kinase assay, MAP4K4; conditions: read-out: IC50, activity toward kinase MAP4K4
MAP4K4, sequence (O95819 whole entry): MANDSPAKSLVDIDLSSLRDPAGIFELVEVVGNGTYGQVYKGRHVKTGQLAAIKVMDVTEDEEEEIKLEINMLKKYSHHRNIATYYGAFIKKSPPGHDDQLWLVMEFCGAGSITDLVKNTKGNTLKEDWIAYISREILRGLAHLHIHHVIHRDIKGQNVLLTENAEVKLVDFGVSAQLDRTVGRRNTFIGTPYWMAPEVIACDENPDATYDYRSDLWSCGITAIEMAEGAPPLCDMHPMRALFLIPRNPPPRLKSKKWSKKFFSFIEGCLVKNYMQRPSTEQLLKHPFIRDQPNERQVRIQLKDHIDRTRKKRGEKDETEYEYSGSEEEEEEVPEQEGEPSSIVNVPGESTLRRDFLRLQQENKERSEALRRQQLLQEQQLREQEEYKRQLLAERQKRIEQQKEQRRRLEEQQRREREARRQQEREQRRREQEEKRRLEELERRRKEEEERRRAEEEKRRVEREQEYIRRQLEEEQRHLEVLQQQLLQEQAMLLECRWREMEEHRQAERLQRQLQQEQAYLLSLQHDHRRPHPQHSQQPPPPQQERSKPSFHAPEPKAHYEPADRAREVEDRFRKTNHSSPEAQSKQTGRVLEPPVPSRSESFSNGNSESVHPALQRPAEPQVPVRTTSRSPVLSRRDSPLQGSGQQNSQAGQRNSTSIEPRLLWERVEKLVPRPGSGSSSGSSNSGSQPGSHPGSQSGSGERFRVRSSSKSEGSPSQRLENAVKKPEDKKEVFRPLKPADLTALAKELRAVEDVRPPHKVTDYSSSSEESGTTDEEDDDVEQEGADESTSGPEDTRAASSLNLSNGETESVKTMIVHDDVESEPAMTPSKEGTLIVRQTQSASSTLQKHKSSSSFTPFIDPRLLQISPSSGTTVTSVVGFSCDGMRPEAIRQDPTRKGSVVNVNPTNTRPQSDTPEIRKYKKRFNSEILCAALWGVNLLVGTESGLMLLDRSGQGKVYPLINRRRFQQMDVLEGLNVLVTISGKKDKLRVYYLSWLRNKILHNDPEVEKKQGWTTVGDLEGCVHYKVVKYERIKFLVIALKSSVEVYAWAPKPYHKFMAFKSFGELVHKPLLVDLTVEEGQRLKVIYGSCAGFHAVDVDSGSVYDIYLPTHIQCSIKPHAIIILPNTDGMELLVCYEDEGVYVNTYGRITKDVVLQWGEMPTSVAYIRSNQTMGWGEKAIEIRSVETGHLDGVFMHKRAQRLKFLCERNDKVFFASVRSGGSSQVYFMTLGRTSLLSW

B-Raf V600E = target: T3, B-Raf V600E (Homo sapiens, UniProt P15056, V600E); experiment: AlphaScreen kinase assay, B-Raf V600E; conditions: read-out: IC50, activity toward kinase B-Raf V600E
T3 construct: P4254. pFastBacBD-CDC37 BRAF D437-K722-X, V600E; His6 with pFastBac HT leader (TEV site) (N); made in house; host or cells: Sf9 (baculovirus; chaperone CDC37 co-expressed)
T3 sequence (P15056 with tags, fused parts or gaps V600E): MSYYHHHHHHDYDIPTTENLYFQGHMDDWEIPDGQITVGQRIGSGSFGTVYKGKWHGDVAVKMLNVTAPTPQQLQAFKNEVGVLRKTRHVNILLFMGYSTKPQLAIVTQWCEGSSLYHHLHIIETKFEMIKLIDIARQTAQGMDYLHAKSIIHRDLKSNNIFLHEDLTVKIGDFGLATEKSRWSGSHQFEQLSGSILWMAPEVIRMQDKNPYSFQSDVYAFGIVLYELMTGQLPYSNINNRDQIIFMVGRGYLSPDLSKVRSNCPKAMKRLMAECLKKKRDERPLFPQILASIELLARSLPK

Jnk3 = target: T4, Jnk3 (Homo sapiens, UniProt P53779); experiment: AlphaScreen kinase assay, Jnk3; conditions: read-out: IC50, activity toward kinase Jnk3
T4 construct: purchased Upstate Biotechnology
Source text: AlphaScreen assay was used to screen additional kinases. The assay is similarly dependent on the phosphorylation of a peptide substrate. In this assay, an antibody that recognizes phosphorylated substrate is bound to an acceptor bead. The peptide substrate is attached to biotin, which binds to a donor head that contains streptavidin. Thus phosphorylated substrate is bound by antibody and streptavidin, bringing the donor and acceptor heads into close proximity when kinase is not inhibited. The donor produces singlet oxygen which results in emission from the acceptor when they are in close proximity. Conversely, when kinase is inhibited, the donor and acceptor beads are not associated and the emission from the acceptor is reduced.
AlphaScreen assays were done using compounds dissolved in DMSO to a concentration of 20 mM. The compounds were diluted accordingly to the desired final concentrations in each sample well, using 1:3 serial dilution for a total of 8 concentration points. Plates were prepared such that each kinase reaction is 20 μl in 1× kinase buffer, 5% DMSO and 10 μM ATP. After incubation of the kinase reaction for 1 hour at room temperature, 5 μl of donor beads in stop buffer (50 mM EDTA in 1× kinase buffer) was added, the sample was mixed and incubated for 20 minutes at room temperature before adding 5 μl of acceptor beads in stop buffer. The samples were incubated for 60 minutes at room temperature and the signal per well was read on AlphaQuest reader.

Kit = target: T5, Kit (Homo sapiens, UniProt P10721); experiment: AlphaScreen kinase assay, Kit; conditions: read-out: IC50, activity toward kinase Kit
T5 construct: P1332.N6 BI PTP KIT M552-K948-X COD; His6 (N); made in house; host or cells: E. coli (PTP1B co-expressed)
T5 sequence (P10721 with tags, fused parts or gaps): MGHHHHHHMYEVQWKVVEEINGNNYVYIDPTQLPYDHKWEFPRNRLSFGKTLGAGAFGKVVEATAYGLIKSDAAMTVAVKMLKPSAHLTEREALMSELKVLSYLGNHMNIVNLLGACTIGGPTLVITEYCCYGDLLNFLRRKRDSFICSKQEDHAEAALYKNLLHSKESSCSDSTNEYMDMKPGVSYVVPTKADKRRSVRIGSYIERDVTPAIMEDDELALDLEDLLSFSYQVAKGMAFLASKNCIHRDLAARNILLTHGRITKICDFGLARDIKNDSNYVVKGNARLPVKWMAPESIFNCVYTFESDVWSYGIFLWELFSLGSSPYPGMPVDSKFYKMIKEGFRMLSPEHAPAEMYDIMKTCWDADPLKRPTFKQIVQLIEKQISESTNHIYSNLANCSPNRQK

Flt1 = target: T6, Flt1 (Homo sapiens, UniProt P17948); experiment: AlphaScreen kinase assay, Flt1; conditions: read-out: IC50, activity toward kinase Flt1
T6 construct: P1826.pETN6 BI-PTP FLT1 M799-D1165-X WT; His6 (N); made in house; host or cells: E. coli (PTP1B co-expressed)
T6 sequence (P17948 with tags, fused parts or gaps): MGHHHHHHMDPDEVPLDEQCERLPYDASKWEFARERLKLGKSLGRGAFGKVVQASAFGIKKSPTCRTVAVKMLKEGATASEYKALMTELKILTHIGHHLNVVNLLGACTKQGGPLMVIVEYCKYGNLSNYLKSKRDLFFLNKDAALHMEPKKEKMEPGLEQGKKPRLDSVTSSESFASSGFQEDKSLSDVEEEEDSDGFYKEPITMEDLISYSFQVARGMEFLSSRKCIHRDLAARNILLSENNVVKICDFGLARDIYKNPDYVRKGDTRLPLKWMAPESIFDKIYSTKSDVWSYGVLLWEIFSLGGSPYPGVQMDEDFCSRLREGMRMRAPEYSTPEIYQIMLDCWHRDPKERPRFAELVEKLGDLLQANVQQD

Fms = target: T7, Fms (Homo sapiens, UniProt P07333); experiment: AlphaScreen kinase assay, Fms; conditions: read-out: IC50, activity toward kinase Fms
T7 construct: purchased Upstate Biotechnology

FGFR1 = target: T8, FGFR1 (Homo sapiens, UniProt P11362, C488A/C584S); experiment: AlphaScreen kinase assay, FGFR1; conditions: read-out: IC50, activity toward kinase FGFR
T8 construct: P1351.pET N6 BI-PTP FGFR A458-E765-X C488A, C584S; made in house; host or cells: E. coli (PTP1B co-expressed)
T8 sequence (P11362 458-765 C488A/C584S): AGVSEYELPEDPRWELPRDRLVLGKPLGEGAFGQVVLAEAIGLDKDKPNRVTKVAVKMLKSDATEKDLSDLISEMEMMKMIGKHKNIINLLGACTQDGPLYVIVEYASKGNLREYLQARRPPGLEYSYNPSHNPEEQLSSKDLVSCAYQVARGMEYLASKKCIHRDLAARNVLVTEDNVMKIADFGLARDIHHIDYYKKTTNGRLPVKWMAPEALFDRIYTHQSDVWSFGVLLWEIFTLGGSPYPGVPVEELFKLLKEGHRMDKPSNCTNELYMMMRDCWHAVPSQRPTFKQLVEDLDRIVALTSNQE

Jnk1 = target: T9, Jnk1 (Homo sapiens, UniProt P45983); experiment: AlphaScreen kinase assay, Jnk1; conditions: read-out: IC50, activity toward kinase Jnk1
T9 construct: purchased Upstate Biotechnology

Src = target: T10, Src (Homo sapiens, UniProt P12931); experiment: AlphaScreen kinase assay, Src; conditions: read-out: IC50, activity toward kinase Src
T10 construct: P1144. pET-N6 BI-PTP SRC V86-L536-X; made in house

c-Raf-1 = target: T11, c-Raf-1 (Homo sapiens, UniProt P04049); experiment: AlphaScreen kinase assay, c-Raf-1; conditions: read-out: IC50, activity toward kinase c-Raf-1
T11 construct: purchased Upstate Biotechnology
T11 sequence (P04049 whole entry): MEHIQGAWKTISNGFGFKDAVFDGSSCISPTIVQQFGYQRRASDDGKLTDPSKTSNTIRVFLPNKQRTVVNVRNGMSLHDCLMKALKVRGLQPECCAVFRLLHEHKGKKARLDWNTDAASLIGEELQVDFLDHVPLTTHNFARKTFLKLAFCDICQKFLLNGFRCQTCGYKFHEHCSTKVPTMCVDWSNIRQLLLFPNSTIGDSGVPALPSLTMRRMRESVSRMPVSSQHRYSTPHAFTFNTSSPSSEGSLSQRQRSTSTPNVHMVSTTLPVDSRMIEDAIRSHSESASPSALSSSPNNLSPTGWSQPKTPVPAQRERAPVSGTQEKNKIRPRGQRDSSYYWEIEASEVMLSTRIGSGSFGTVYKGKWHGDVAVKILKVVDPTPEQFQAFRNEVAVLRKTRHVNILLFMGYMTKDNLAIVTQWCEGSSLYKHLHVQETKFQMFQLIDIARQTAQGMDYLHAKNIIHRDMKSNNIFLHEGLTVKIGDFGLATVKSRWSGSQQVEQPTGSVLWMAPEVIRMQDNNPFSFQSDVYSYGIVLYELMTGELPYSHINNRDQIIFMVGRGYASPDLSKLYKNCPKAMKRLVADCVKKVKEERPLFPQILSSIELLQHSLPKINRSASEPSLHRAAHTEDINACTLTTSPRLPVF

B-Raf = target: T12, B-Raf (Homo sapiens, UniProt P15056); experiment: AlphaScreen kinase assay, B-Raf; conditions: read-out: IC50, activity toward kinase B-Raf
T12 construct: purchased Upstate Biotechnology
T12 sequence (P15056 whole entry): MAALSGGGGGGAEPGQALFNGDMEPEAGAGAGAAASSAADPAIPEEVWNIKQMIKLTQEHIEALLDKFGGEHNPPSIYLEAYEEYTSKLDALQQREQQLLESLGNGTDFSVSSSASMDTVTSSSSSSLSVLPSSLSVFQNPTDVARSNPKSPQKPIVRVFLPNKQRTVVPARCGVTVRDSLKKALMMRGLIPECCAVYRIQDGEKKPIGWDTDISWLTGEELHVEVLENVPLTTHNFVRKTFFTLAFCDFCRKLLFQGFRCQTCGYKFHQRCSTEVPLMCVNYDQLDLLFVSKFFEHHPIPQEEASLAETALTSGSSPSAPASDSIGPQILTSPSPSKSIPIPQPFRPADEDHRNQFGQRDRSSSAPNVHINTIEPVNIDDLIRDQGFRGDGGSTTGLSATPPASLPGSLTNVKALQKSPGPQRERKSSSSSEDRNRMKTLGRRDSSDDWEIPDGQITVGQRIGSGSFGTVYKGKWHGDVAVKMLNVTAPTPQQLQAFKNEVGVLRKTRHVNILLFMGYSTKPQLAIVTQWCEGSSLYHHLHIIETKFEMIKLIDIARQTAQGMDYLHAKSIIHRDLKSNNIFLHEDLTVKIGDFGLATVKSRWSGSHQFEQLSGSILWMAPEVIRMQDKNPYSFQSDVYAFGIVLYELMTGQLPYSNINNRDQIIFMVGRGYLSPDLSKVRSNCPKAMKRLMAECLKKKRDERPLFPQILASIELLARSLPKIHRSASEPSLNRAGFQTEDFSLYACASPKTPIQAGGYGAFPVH

Measured: IC50

T1 sequence (P35968 20-1356): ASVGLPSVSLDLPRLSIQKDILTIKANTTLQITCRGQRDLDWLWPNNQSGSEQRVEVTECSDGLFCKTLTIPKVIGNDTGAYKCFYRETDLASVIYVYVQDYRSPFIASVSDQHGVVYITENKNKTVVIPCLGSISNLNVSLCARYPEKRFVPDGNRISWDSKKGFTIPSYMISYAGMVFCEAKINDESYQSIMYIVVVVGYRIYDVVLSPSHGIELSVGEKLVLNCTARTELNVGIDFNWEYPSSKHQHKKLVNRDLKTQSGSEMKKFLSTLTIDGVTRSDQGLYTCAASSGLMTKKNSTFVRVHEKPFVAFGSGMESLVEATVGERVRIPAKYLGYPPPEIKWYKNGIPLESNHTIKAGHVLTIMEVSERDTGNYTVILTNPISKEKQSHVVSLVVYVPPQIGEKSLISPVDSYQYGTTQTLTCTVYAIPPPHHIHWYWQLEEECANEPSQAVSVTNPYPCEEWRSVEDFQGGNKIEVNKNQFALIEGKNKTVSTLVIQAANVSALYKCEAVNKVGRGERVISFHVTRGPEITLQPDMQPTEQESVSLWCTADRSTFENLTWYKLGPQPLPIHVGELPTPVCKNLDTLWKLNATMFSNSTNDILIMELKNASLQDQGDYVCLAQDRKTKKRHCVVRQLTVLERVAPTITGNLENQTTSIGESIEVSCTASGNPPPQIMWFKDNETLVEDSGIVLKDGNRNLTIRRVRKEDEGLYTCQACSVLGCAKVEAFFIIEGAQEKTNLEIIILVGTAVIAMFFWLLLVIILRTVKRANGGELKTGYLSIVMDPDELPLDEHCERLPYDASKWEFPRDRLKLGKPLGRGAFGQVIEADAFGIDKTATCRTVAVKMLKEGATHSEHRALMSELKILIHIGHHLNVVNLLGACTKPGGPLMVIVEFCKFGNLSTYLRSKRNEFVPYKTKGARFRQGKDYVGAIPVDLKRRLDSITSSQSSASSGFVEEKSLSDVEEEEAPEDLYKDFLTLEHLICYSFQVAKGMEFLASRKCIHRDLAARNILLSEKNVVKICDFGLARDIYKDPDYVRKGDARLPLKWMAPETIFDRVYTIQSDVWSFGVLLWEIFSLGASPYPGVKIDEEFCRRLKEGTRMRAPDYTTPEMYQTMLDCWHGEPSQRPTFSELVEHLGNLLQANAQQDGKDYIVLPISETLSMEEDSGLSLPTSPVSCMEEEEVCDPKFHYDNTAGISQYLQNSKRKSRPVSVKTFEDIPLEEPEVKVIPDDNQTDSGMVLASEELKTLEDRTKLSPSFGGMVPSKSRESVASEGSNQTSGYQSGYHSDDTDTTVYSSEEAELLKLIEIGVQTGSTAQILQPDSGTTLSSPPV

c1cnc2[nH]cc(Sc3ccncc3)c2c1 [Compound P-0131]
≤ 10 µM: Kdr | Stk6 | MAP4K4

COc1ccc(-c2cnc3[nH]cc(C#Cc4cccc(C(=O)O)c4)c3c2)cc1OC [Compound P-0174]
≤ 10 µM: B-Raf V600E | Kdr | Stk6 | MAP4K4

c1cncc(-c2cnc3[nH]ccc3c2)c1 [Compound P-0176]
≤ 10 µM: Jnk3 | Kdr | Stk6 | Kit | MAP4K4

c1ccc(Sc2c[nH]c3ncccc23)nc1 [Compound P-0214]
≤ 10 µM: Stk6 | MAP4K4 | Flt1

COc1cccc(Cc2c[nH]c3ncc(-c4ccsc4)cc23)n1 [Compound P-0300]
≤ 10 µM: Jnk3 | Stk6 | Kit | MAP4K4

Clc1ncccc1Cc1c[nH]c2ncccc12 [Compound P-0317]
≤ 10 µM: Stk6 | Fms | MAP4K4

CCCS(=O)(=O)Nc1ccc(F)c(C(=O)c2c[nH]c3ncc(N4CCOCC4)cc23)c1F [Compound P-0853, Propane-1-sulfonic acid [2,4-difluoro-3-(5-morpholin-4-yl-1H-pyrrolo[2,3-b]pyridine-3-carbonyl)-phenyl]-amide]
not listed: Kdr | Stk6 | Jnk3 | Flt1
≤ 10 µM: all other assays above

CCCS(=O)(=O)Nc1ccc(Cl)c(C(=O)c2c[nH]c3ncccc23)c1F [Compound P-0904, Propane-1-sulfonic acid [4-chloro-2-fluoro-3-(1H-pyrrolo[2,3-b]pyridine-3-carbonyl)-phenyl]-amide]
≤ 10 µM: B-Raf V600E | FGFR1 | c-Raf-1 | MAP4K4 | B-Raf

COc1cc(Nc2ccnc3[nH]ccc23)cc(OC)c1OC [Compound P-0909]
≤ 10 µM: c-Raf-1 | MAP4K4 | B-Raf

O=C(c1c(F)ccc(NS(=O)(=O)c2ccc(C(F)(F)F)cc2)c1F)c1c[nH]c2ncccc12 [Compound P-0931, N-[2,4-Difluoro-3-(1H-pyrrolo[2,3-b]pyridine-3-carbonyl)-phenyl]-4-trifluoromethyl-benzenesulfonamide]
≤ 10 µM: B-Raf V600E | Kit | c-Raf-1 | Fms | MAP4K4 | B-Raf

O=C(c1c(F)ccc(NS(=O)(=O)c2ccc(Cl)cc2)c1F)c1c[nH]c2ncccc12 [Compound P-0937, 4-Chloro-N-[2,4-difluoro-3-(1H-pyrrolo[2,3-b]pyridine-3-carbonyl)-phenyl]-benzenesulfonamide]
≤ 10 µM: B-Raf V600E | FGFR1 | Kit | c-Raf-1 | MAP4K4 | B-Raf

COc1cccc(S(=O)(=O)Nc2ccc(F)c(C(=O)c3c[nH]c4ncccc34)c2F)c1 [Compound P-0971, N-[2,4-difluoro-3-(1H-pyrrolo[2,3-b]pyridine-3-carbonyl)phenyl]-3-methoxy-benzenesulfonamide]
≤ 10 µM: B-Raf V600E | c-Raf-1 | MAP4K4

O=C(O)c1ccc(F)c(C(=O)c2c[nH]c3ncc(-c4cccnc4)cc23)c1F [Compound P-1017]
≤ 10 µM: FGFR1 | c-Raf-1 | MAP4K4

CCCS(=O)(=O)Nc1cccc(C(=O)c2c[nH]c3ncccc23)c1F [Compound P-1056, propane-1-sulfonic acid [2-fluoro-3-(1H-1-pyrrolo[2,3-b]pyridine-3-carbonyl)-phenyl]-amide]
≤ 10 µM: B-Raf V600E | c-Raf-1 | MAP4K4 | B-Raf

COc1cc(OC)cc(C(=O)c2c[nH]c3ncc(-c4ccccc4)cc23)c1 [Compound P-1406, (3,5-Dimethoxy-phenyl)-(5-phenyl-1H-pyrrolo[2.3 b]pyridin-3-yl)-methanone]
≤ 10 µM: FGFR1 | Kit | Fms | MAP4K4 | Flt1

O=C(c1cccc(OC(F)F)c1)c1c[nH]c2ncc(-c3cccnc3)cc12 [Compound P-1415, (3-Difluoromethoxy-phenyl)-(5-pyridin-3-yl-1H-pyrrolo[2,3-b]pyridin-3-yl)-methanone]
≤ 10 µM: B-Raf V600E | FGFR1 | Kit | Fms | MAP4K4 | Flt1

O=C(O)/C=C/c1cccc(-c2cnc3[nH]cc(C(=O)c4cccc(OC(F)(F)F)c4)c3c2)c1 [Compound P-1417, (E)-3-{3-[3-(3-Trifluoromethoxy-benzoyl)-1H-pyrrolo[2,3-b]pyridin-5-yl]-phenyl}-acrylic acid]
≤ 10 µM: B-Raf V600E | Kit | Src | MAP4K4 | Flt1

O=C(O)/C=C/c1cccc(-c2cnc3[nH]cc(C(=O)c4cccc(OC(F)F)c4)c3c2)c1 [Compound P-1418, (E)-3-{3-[3-(3-Difluoromethoxy-benzoyl)-1H-pyrrolo[2,3-b]pyridin-5-yl]-phenyl}-acrylic acid]
≤ 10 µM: B-Raf V600E | FGFR1 | MAP4K4 | Flt1

CS(=O)(=O)Nc1cccc(-c2cnc3[nH]cc(C(=O)c4cc(Cl)cc(Cl)c4)c3c2)c1 [Compound P-1429, N-{3-[3-(3,5-Dichloro-benzoyl)-1H-pyrrolo[2,3-b]pyridin-5-yl]-phenyl}-methanesulfonamide]
≤ 10 µM: B-Raf V600E | FGFR1 | Kit | Fms | MAP4K4 | B-Raf | Flt1
